Earlier results, collected in patent US20260201030A1, “ANTIBODY, ANTIBODY-DRUG CONJUGATE THEREOF AND USE THEREOF” (EVOPOINT BIOSCIENCES CO., LTD., priority 2021, published 2026).

Details: FL118 alone; cited from earlier work

CC[C@@]1(O)C(=O)OCc2c1cc1n(c2=O)Cc2cc3cc4c(cc3nc2-1)OCO4 [FL118, (20S)-10,11-methylenedioxy camptothecin]
water solubility: extremely poor water solubility
